From US8735071B2, “Compositions for promoting epigenetic DNA demethylation and methods of use therefore” (The Johns Hopkins University, priority 2008, dated 2014)

Tests used:
[1] = test system: Arc; settings: CPP 10 mg/kg i.p. at 1 hr before ECT; 1 hr after ECT; FIG. 2E
Description: (§1) Electroconvulsive treatment (ECT) was administered with pulses consisted of 1.0 s, 100 Hz, 18 mA stimulus of 0.3 ms delivered using the Ugo Basile ECT unit (Model 57800) as previously described (A. J. Cole, Neurochem 55, 1920 (1990)). […] S ham animals were similarly handled in parallel without the current delivery. In some experiments, ±3-(2-carboxypiperazin-4-yl)-propyl-1-phosphonic acid (CPP, 10 mg/kg body weight, i.p.), was injected at 1 hr before ECT. Potential damaging responses after ECT was examined by Western blot and immunostaining of the activated form of caspase (Caspase 3-a; Rabbit; 1:500; Cell Signaling) and phospho-ATM (Ataxia telangiectasia mutated kinase; mouse; Millipore) (3).
(§2) Dentate gyrus tissue was rapidly micro-dissected from adult WT mice, or with ECT, spatial exploration or running. […] For gene expression analysis, total RNA fraction was immediately isolated after dissection (Qiagen), treated with DNAase and reverse-transcribed into the first-strand cDNA (Invitrogen). Specific primers (listed in Table 1) were used in SYBR-green based quantitative real-time PCR to measure the expression level of target genes with the ΔΔT method (ABI). Most primers were designed to span introns to further prevent genomic DNA amplification during the PCR reaction.

[2] = test system: Gadd45b; settings: CPP 10 mg/kg i.p. at 1 hr before ECT; 1 hr after ECT; FIG. 2E
Description: as §1, §2

[3] = test system: Gadd45b expression; experiment: Gadd45b expression in cultured primary hippocampal neurons by Q-PCR; format: cell-based, mice; settings: for Gadd45b expression: agent alone, K^+ 50 mM, APV 200 μM, bicuculline 50 μM, FIG. 5A, 5C; for K^+-induced Gadd45b expression: pretreated 0.5 hr, then K^+ (50 mM) for 1 hr, BAPTA 50 μM, Nimodipin 10 μM, KN93 or KN92 10 μM, FIG. 5B
Source text: as §2
Primary hippocampal neurons were prepared from hippocampi of P0 mice and plated on poly-lysine coated coverslips in Neurobasal-A medium supplemented with B27 (Invitrogen) as previously described (H. Song, C. F. Stevens, F. H. Gage, Nature 417, 39 (2002)). AraC (5 μM) was added to eliminate proliferating cells. One-week old culture was used for all experiments. For pharmacological experiments, cultures were pretreated with the following inhibitors 30 minutes before stimulation with K^+ (50 mM) or glutamate (20 μM) for 1 hr: BAPTA (50 μM), Nimodipin (10 μM), APV (200 μM), bicuculline (50 μM), KN92 or KN93 (10

[4] = test system: adult neural progenitors; experiment: Proliferation of adult hippocampal neural progenitors in culture; format: cell-based, rat; settings: FGF-1 0, 2, 5, 10 and 20 ng/ml versus FGF-2 20 ng/ml; cell number at 4 days in vitro; FIG. 23
Description: Established neural progenitors from adult rat hippocampus were cultured as monolayer as previously described (H. Song, C. F. Stevens, F. H. Gage, Nature 417, 39 (2002).). They were maintained on laminin and polyornithine-coated dishes in DMEM/F12 medium containing N2 supplement, L-glutamine (2 mM) and FGF-2 (20 ng/ml). Cultures were passaged for expansion when reaching 70% confluence. For FGF-1 experiments, early-passage, monolayer adherent cultures were plated at the clonal density in the presence of various concentration of FGF-1 or FGF-2 (PeproTech). At 4 days in vitro, cultures were fixed and cell numbers from each condition were determined by counting from randomly selected fields of 4 different biological replicates.

Compound	Gadd45b expression ([3]; glutamate 20 μM)	K^+-induced Gadd45b expression [3]	further results
O=C(O)C1CN(CCCP(=O)(O)O)CCN1 (racemic) [CPP, ±3-(2-carboxypiperazin-4-yl)-propyl-1-phosphonic acid]			ECT-induced Arc expression [1]: abolished; ECT-induced Gadd45b expression [2]: abolished
N[C@@H](CCCP(=O)(O)O)C(=O)O [APV]	significantly decreased		glutamate-induced Gadd45b expression ([3]; APV 200 μM pre-treatment, glutamate 20 μM, FIG. 5C): blocked
O=C(O)CN(CC(=O)O)c1ccccc1OCCOc1ccccc1N(CC(=O)O)CC(=O)O [BAPTA]		abolished	
COc1ccc(S(=O)(=O)Nc2ccccc2CN(C)C/C=C/c2ccc(Cl)cc2)cc1 [KN92]		not	
COc1ccc(S(=O)(=O)N(CCO)c2ccccc2CN(C)C/C=C/c2ccc(Cl)cc2)cc1 [KN93]		abolished	
[Cl-].[K+] [K^+]	significant increase		
COCCOC(=O)C1=C(C)NC(C)=C(C(=O)OC(C)C)C1c1cccc([N+](=O)[O-])c1 (centres unmarked) [Nimodipin]		abolished	
N[C@@H](CCC(=O)O)C(=O)O [glutamate]	induced		
FGF-1: fibroblast growth factor-1 (PeproTech)			mitogenic activity on neural progenitor proliferation in vitro [4]: robust mitogenic activity
